Patent publication US11986478B2 (priority 2021, dated 2024)
Like-named read-outs stand apart in the source and are kept apart here.

Key:
SARS-CoV-2 PLpro [1] = target: T1, SARS-CoV-2 PLpro (Severe acute respiratory syndrome coronavirus 2, UniProt P0DTD1); assay: biochemical; assay type: biochemical
SARS-CoV-2 [2] = assay: microbe, parasite or virus in culture; assay type: cell-based; settings: Severe acute respiratory syndrome coronavirus 2, read-out: EC50 anti-SARS-CoV-2 activity
SARS-CoV-2 [3] = assay type: cell-based
MERS-CoV [4] = assay type: cell-based
SARS-CoV-2 [5] = assay type: cell-based; remark: listed apart in the source
MERS-CoV [6] = assay type: cell-based; remark: listed apart in the source
hCoV-229E = assay type: cell-based
hCoV-OC43 = assay type: cell-based
SARS-CoV-2 PLpro [7] = target: T1, SARS-CoV-2 PLpro; assay type: biochemical
MERS-CoV PLpro [8] = target: T2, MERS-CoV PLpro (Middle East respiratory syndrome-related coronavirus, UniProt K9N7C7); assay type: biochemical
T2 sequence (K9N7C7 1552-1823 limits assumed): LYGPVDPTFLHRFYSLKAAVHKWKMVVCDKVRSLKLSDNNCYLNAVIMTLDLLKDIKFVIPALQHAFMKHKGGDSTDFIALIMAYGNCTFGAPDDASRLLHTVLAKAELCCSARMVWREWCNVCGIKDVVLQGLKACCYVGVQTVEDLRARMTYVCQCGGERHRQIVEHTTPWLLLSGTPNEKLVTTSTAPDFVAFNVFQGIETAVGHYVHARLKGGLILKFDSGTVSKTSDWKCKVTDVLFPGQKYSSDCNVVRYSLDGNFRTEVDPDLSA

human DUBs = assay type: biochemical
SARS-CoV-2 PLpro [9] = target: T1, SARS-CoV-2 PLpro; assay type: biochemical; remark: listed apart in the source
[10] = system: cellular proteases (serine, cysteine and acid proteases) in Huh-7, Caco-2 and A549 lysates; assay type: biochemical, human
SARS-CoV-2 PLpro [11] = target: T1, SARS-CoV-2 PLpro; assay type: cell-based
MERS-CoV PLpro [12] = target: T2, MERS-CoV PLpro; assay type: cell-based
[13] = system: SARS-CoV-2-infected Caco-2 cells; assay type: cell-based, human
[14] = system: MERS-CoV-infected Huh-7 cells; assay type: cell-based, human
Caco-2 and Huh-7 cells = assay type: cell-based, human
SARS-CoV-2 [15] = system: SARS-CoV-2; design: species or system golden Syrian hamster; settings: hamster, in vivo
MERS-CoV [16] = assay type: cell-based; remark: listed apart in the source
[17] = system: Huh7, VeroE6/TMPRSS2, Calu-3, Caco-2, BSC1 cells and human embryonic lung fibroblasts (HELF)
MERS-CoV PLpro [18] = target: T2, MERS-CoV PLpro; assay type: biochemical; remark: listed apart in the source
[19] = read-out: IC50 against SARS-CoV-2-PLpro

Compound: O=C(Nc1ccccc1Cl)c1sc(=S)n2c1[nH]c(=O)c1ccccc12 [Compound F0213]
- IC50 (SARS-CoV-2 PLpro [1]; [19]): 7.4 µM
- EC50 (SARS-CoV-2 [2]): 4.5 µM
- inhibition of virus replication by NP antigen immunofluorescence (SARS-CoV-2 [3]): significant inhibition of virus replication
- inhibition of virus replication by NP antigen immunofluorescence (MERS-CoV [4]): significant inhibition of virus replication
- reduction of SARS-CoV-2 viral yields (SARS-CoV-2 [5]): more than 1 log 10
- decrease of viral yields (MERS-CoV [6]): about 3 log 10
- decrease of viral yields (hCoV-229E): about 2 log 10
- decrease of viral yields (hCoV-OC43): around 1.5 log 10
- cleavage of ISG15-AMC and Ubiquitin-AMC (SARS-CoV-2 PLpro [7]): inhibited cleavage
- cleavage of ISG15-AMC and Ubiquitin-AMC (MERS-CoV PLpro [8]): inhibited cleavage
- modification of cellular DUBs by HA-Ub-VS (human DUBs): no change was noted in the immunoblot pattern
- modification of PLpro by HA-Ub-VS (SARS-CoV-2 PLpro [9]): eliminated in the presence of GRL0617 but not F0213
- cellular protease activity [10]: not affected
- rescue of IFN-β, IRF3 and NF-κB reporter gene expression (SARS-CoV-2 PLpro [11]): rescued the genes expression in a dose-dependent manner
- rescue of IFN-β, IRF3 and NF-κB reporter gene expression (MERS-CoV PLpro [12]): rescued the genes expression in a dose-dependent manner
- expression of IFN-responsive genes ISG15 and PKR [13]: significantly enhanced
- transcription levels of ISG15 and PKR [14]: reduced
- cellular antiviral signaling (Caco-2 and Huh-7 cells): potentiated the cellular antiviral signaling
- SARS-CoV-2 N expression in lung by immunofluorescence (SARS-CoV-2 [15]): reduced N expression
- SARS-CoV-2 genome copies in the lungs (SARS-CoV-2 [15]): suppression
- lung damage by H & E staining (SARS-CoV-2 [15]): improved morphology and milder infiltrations
- decrease of virus plaque-forming units in lung tissues (SARS-CoV-2 [15]; 5 mg/kg/day): 1-2 log 10
- efficacy by route on lung genome copies (SARS-CoV-2 [15]; 5 mg/kg/day): superior efficacy via PO route than that of IP injection
- antiviral EC50 against MERS-CoV compared with SARS-CoV-2 (MERS-CoV [16]): lower antiviral EC50 against MERS-CoV than SARS-CoV-2
- cytotoxicity in the matching cell lines [17]: negligible cytotoxicity

Compound: COc1cc2c(=O)[nH]c3c(C(=O)Nc4cc(Cl)ccc4C)sc(=S)n3c2cc1OC [Compound F0326]
- IC50 (SARS-CoV-2 PLpro [1]): 8.2 µM
- EC50 (SARS-CoV-2 [2]): 7.6 µM

Compound: Cc1cccc(NC(=O)c2sc(=S)n3c2[nH]c(=O)c2cc4c(cc23)OCO4)c1 [Compound F0393]
- IC50 (SARS-CoV-2 PLpro [1]; [19]): 15.8 µM

Compound: CCN1C(=O)C=CC1=O [NEM, N-ethyl-maleimide, reference compound]
- modification of cellular DUBs by HA-Ub-VS (human DUBs): diminished the modification of HA-Ub-VS on DUBs

Compound: GRL0617 [reference compound]
- effect on MERS-CoV-PLpro activity (MERS-CoV PLpro [18]): without impairing the MERS-CoV-PLpro activity
- inhibition of virus replication by NP antigen immunofluorescence (SARS-CoV-2 [3]): marginal virus suppression
- inhibition of virus replication by NP antigen immunofluorescence (MERS-CoV [4]): marginal virus suppression
- modification of PLpro by HA-Ub-VS (SARS-CoV-2 PLpro [9]): almost completely eliminated
